According to the kinase profiling compilation of Christmann-Franck et al. (2016):

Columns and labels:
Assay in all cases: radiometric filter-binding kinase assay, Kinase HotSpot
Details in all cases: compound 0.5 µM; ATP 10 µM
ACVR1B (human) = ACVR1B (human) (UniProt P36896)
ALK (human) = ALK (human) (UniProt Q9UM73)
AXL (human) = AXL (human) (UniProt P30530)
CAMK2B (human) = CAMK2B (human) (UniProt Q13554)
CDK1 CCNA2 (human) = CDK1 CCNA2 (human) (UniProt P06493+P20248)
CDK2 CCNE1 (human) = CDK2 CCNE1 (human) (UniProt P24941+P24864)
CDK6 CCND1 (human) = CDK6 CCND1 (human) (UniProt Q00534+P24385)
CDK9 CCNK (human) = CDK9 CCNK (human) (UniProt O75909+P50750)
CHEK2 (human) = CHEK2 (human) (UniProt O96017)
CHUK (human) = CHUK (human) (UniProt O15111)
CSNK1E (human) = CSNK1E (human) (UniProt P49674)
DAPK1 (human) = DAPK1 (human) (UniProt P53355)
EPHA7 (human) = EPHA7 (human) (UniProt Q15375)
ERBB2 (human) = ERBB2 (human) (UniProt P04626)
FER (human) = FER (human) (UniProt P16591)
FLT3 (human) = FLT3 (human) (UniProt P36888)
FRK (human) = FRK (human) (UniProt P42685)
FYN (human) = FYN (human) (UniProt P06241)
GRK4 (human) = GRK4 (human) (UniProt P32298)
GRK5 (human) = GRK5 (human) (UniProt P34947)
GRK6 (human) = GRK6 (human) (UniProt P43250)
GSG2 (human) = GSG2 (human) (UniProt Q8TF76)
LCK (human) = LCK (human) (UniProt P06239)
MAPK1 (human) = MAPK1 (human) (UniProt P28482)
MAPK10 (human) = MAPK10 (human) (UniProt P53779)
MAPK11 (human) = MAPK11 (human) (UniProt Q15759)
MAPK12 (human) = MAPK12 (human) (UniProt P53778)
MAPK14 (human) = MAPK14 (human) (UniProt Q16539)
MAPKAPK5 (human) = MAPKAPK5 (human) (UniProt Q8IW41)
PAK3 (human) = PAK3 (human) (UniProt O75914)
PDPK1 (human) = PDPK1 (human) (UniProt O15530)
PRKCB1 (human) = PRKCB1 (human) (UniProt P05771)
PRKD3 (human) = PRKD3 (human) (UniProt O94806)
PRKG2 (human) = PRKG2 (human) (UniProt Q13237)
PRKX (human) = PRKX (human) (UniProt P51817)
ROCK2 (human) = ROCK2 (human) (UniProt O75116)
ROS1 (human) = ROS1 (human) (UniProt P08922)
RPS6KA5 KD2 (human) = RPS6KA5 KD2 (human) (UniProt O75582)
RPS6KA6 KD1 KD2 (human) = RPS6KA6 KD1 KD2 (human) (UniProt Q9UK32)
SRPK3 (human) = SRPK3 (human) (UniProt Q9UPE1)
STK24 (human) = STK24 (human) (UniProt Q9Y6E0)
TTK (human) = TTK (human) (UniProt P33981)
TTK (human), sequence (P33981 whole entry, looked up): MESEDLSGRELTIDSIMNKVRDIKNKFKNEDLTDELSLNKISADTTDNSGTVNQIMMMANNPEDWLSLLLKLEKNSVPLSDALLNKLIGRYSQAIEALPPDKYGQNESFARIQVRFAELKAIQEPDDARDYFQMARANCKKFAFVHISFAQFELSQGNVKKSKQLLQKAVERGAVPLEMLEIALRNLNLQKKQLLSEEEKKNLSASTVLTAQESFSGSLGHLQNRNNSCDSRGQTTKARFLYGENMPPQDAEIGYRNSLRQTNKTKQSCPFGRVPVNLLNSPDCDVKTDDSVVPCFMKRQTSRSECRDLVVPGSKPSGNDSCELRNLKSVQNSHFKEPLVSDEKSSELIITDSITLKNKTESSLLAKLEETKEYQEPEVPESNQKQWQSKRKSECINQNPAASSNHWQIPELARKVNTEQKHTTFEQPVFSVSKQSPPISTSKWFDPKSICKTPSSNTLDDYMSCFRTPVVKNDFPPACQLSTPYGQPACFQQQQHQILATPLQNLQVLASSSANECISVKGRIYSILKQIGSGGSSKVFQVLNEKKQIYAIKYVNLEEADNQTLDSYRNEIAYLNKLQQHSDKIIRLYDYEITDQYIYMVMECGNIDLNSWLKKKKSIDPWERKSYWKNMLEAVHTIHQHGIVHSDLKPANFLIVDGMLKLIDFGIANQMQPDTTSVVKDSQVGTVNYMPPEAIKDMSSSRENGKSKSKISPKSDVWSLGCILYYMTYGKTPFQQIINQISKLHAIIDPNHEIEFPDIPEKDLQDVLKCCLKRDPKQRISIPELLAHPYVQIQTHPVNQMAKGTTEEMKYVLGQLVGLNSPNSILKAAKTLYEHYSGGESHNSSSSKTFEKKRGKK

ERBB2 (human), sequence (P04626 whole entry, looked up): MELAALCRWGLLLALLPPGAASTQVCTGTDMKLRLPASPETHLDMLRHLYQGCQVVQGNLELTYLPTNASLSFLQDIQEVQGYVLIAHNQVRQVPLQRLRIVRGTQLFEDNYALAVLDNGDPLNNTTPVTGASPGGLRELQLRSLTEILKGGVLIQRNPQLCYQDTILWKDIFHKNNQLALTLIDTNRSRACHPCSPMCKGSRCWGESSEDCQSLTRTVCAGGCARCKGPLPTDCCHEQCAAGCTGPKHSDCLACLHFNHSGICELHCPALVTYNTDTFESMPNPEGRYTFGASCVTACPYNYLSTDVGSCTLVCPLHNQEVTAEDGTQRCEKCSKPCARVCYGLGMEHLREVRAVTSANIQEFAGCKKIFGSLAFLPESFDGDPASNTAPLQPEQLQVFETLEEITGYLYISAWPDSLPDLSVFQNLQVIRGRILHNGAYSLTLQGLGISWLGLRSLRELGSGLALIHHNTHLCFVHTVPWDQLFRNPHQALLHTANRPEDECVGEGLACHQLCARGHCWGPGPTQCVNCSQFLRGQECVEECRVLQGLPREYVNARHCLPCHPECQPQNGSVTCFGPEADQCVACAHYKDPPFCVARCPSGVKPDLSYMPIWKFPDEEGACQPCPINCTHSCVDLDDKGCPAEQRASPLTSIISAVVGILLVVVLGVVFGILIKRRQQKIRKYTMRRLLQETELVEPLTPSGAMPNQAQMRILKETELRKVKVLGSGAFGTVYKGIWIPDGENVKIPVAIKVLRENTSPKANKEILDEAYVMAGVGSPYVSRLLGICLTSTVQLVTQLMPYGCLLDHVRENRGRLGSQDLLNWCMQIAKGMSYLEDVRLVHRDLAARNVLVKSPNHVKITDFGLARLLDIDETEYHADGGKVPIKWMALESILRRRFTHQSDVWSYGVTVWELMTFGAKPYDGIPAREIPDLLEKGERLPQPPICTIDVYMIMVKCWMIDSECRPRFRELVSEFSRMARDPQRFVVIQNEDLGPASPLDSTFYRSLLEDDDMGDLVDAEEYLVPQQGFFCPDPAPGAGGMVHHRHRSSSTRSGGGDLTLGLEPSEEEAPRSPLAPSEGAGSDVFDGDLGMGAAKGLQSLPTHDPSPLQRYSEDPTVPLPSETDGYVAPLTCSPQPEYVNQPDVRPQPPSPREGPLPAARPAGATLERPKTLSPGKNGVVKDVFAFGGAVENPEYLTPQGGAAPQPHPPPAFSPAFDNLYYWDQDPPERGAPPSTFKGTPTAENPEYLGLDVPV
RPS6KA5 KD2 (human), sequence (O75582 whole entry, looked up): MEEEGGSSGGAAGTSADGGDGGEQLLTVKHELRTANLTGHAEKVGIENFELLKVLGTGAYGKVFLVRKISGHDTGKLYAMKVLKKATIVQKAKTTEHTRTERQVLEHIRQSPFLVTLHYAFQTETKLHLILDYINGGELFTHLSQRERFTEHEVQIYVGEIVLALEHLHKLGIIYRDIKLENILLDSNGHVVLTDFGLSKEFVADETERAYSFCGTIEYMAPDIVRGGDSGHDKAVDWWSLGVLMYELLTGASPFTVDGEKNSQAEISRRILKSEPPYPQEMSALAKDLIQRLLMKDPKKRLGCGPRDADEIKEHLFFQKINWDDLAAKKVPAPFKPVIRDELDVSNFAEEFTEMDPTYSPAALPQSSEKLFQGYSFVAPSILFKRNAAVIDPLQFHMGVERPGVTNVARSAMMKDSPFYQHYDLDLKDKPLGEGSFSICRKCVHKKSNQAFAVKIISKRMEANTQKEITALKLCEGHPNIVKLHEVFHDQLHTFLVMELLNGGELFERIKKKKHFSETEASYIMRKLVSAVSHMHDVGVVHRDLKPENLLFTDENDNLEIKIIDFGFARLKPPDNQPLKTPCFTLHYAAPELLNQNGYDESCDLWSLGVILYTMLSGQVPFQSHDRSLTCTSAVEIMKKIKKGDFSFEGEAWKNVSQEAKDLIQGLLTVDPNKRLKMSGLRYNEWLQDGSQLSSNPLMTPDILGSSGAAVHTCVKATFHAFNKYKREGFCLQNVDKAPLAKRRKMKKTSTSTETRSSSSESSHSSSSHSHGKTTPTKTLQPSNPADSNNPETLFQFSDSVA
FLT3 (human), sequence (P36888 whole entry, looked up): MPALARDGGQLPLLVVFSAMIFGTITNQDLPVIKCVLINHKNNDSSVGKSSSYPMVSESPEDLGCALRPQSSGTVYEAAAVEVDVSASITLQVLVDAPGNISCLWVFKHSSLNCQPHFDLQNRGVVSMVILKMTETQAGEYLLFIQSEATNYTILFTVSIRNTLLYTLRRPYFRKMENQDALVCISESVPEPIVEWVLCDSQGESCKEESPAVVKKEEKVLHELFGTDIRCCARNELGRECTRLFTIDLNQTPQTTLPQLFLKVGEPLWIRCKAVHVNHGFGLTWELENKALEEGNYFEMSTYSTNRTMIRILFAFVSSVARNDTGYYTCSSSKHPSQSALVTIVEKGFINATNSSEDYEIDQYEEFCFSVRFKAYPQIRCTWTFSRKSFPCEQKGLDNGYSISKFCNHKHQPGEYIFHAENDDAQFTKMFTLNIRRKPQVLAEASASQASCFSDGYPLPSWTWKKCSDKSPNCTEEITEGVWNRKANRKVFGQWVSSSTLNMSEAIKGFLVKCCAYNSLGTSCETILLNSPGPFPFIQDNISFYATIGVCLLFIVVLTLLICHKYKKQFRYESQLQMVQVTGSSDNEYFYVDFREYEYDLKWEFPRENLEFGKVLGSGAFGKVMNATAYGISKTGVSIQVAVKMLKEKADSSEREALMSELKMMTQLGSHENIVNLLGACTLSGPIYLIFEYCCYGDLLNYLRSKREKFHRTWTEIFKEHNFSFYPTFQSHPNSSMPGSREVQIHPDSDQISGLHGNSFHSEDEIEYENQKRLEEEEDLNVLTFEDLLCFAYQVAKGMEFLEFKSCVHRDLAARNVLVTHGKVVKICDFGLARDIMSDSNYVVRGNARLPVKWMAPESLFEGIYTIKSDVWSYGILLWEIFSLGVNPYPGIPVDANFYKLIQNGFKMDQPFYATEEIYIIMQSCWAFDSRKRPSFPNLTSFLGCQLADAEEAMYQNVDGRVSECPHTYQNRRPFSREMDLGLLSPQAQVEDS
LCK (human), sequence (P06239 whole entry, looked up): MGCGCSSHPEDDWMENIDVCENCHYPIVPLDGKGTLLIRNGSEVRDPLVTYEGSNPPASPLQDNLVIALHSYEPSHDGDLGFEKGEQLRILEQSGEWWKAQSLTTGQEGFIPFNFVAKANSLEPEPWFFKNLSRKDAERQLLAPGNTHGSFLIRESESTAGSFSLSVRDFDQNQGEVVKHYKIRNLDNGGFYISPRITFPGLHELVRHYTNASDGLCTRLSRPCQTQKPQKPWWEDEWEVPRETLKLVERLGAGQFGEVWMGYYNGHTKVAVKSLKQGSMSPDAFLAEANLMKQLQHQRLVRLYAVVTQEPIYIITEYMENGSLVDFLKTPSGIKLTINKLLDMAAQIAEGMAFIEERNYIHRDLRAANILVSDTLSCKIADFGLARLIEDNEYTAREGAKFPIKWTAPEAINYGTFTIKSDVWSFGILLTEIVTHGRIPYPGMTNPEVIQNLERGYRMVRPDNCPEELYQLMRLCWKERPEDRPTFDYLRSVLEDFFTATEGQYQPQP
MAPK1 (human), sequence (P28482 whole entry, looked up): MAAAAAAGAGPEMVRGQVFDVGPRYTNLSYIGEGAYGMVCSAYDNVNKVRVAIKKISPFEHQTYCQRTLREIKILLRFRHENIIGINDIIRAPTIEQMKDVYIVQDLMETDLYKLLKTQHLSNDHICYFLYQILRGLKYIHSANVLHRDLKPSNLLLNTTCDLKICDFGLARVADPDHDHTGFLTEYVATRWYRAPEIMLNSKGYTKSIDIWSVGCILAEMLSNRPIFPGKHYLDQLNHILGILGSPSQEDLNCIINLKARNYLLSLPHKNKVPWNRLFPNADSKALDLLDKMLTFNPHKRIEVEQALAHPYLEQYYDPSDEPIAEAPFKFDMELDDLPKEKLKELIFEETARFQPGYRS

In the case of `Cn1cnc2cc3c(Nc4cccc(Br)c4)ncnc3cc21`, the residual activity (ACVR1B (human)) is reported as 111%, the residual activity (ALK (human)) is reported as 92.4% and the residual activity (AXL (human)) is reported as 101%. For the same compound, the residual activity (CAMK2B (human)) was 102%, the residual activity (CDK1 CCNA2 (human)) was 95.8% and the residual activity (CDK2 CCNE1 (human)) was 78.2%. The residual activity (CDK6 CCND1 (human)) was 107%, the residual activity (CDK9 CCNK (human)) was 100% and the residual activity (CHEK2 (human)) was 101%. For the same compound, the residual activity (CHUK (human)) was 89.7%, the residual activity (CSNK1E (human)) was 90.3% and the residual activity (DAPK1 (human)) was 87.2%. For the same compound, the residual activity (EPHA7 (human)) was 72%, the residual activity (ERBB2 (human)) was 47.4% and the residual activity (FER (human)) was 90.6%. It also gave a residual activity (FLT3 (human)) of 33.4%, a residual activity (FRK (human)) of 93.6% and a residual activity (FYN (human)) of 85.9%. For the same compound, the residual activity (GRK4 (human)) was 99.5%, the residual activity (GRK5 (human)) was 109% and the residual activity (GRK6 (human)) was 107%. For the same compound, the residual activity (GSG2 (human)) was 89.4%, the residual activity (LCK (human)) was 47.7% and the residual activity (MAPK1 (human)) was 94.2%. The residual activity (MAPK10 (human)) was 104%, the residual activity (MAPK11 (human)) was 85.9% and the residual activity (MAPK12 (human)) was 92%. The residual activity (MAPK14 (human)) was 93.6%, the residual activity (MAPKAPK5 (human)) was 130% and the residual activity (PAK3 (human)) was 98.5%. The residual activity (PDPK1 (human)) was 98.8%, the residual activity (PRKCB1 (human)) was 100% and the residual activity (PRKD3 (human)) was 93.1%. For the same compound, the residual activity (PRKG2 (human)) was 63.6%, the residual activity (PRKX (human)) was 101% and the residual activity (ROCK2 (human)) was 88.5%. For the same compound, the residual activity (ROS1 (human)) was 99.9%, the residual activity (RPS6KA5 KD2 (human)) was 93.5% and the residual activity (RPS6KA6 KD1 KD2 (human)) was 92.5%. The residual activity (SRPK3 (human)) was 94.9%, the residual activity (STK24 (human)) was 83.4% and the residual activity (TTK (human)) was 95.7%.
`O=C1NC(=O)C(c2cn(CCCO)c3ncccc23)=C1c1cnccn1` gave a residual activity (ACVR1B (human)) of 100%, a residual activity (ALK (human)) of 105% and a residual activity (AXL (human)) of 104%. It also gave a residual activity (CAMK2B (human)) of 97.6%, a residual activity (CDK1 CCNA2 (human)) of 91.8% and a residual activity (CDK2 CCNE1 (human)) of 85.1%. It also gave a residual activity (CDK6 CCND1 (human)) of 83.4%, a residual activity (CDK9 CCNK (human)) of 89.5% and a residual activity (CHEK2 (human)) of 97.7%. The residual activity (CSNK1E (human)) was 93.9%, the residual activity (DAPK1 (human)) was 74.4% and the residual activity (EPHA7 (human)) was 105%. It also gave a residual activity (ERBB2 (human)) of 106%, a residual activity (FER (human)) of 99.2% and a residual activity (FLT3 (human)) of 87.8%. It also gave a residual activity (FRK (human)) of 88.3%, a residual activity (FYN (human)) of 107% and a residual activity (GRK4 (human)) of 90.1%. The residual activity (GRK5 (human)) was 116%, the residual activity (GRK6 (human)) was 102% and the residual activity (GSG2 (human)) was 91.9%. It also gave a residual activity (LCK (human)) of 95.8%, a residual activity (MAPK1 (human)) of 81.9% and a residual activity (MAPK10 (human)) of 88%. The residual activity (MAPK11 (human)) was 105%, the residual activity (MAPK12 (human)) was 86.8% and the residual activity (MAPK14 (human)) was 107%. For the same compound, the residual activity (MAPKAPK5 (human)) was 98.6%, the residual activity (PAK3 (human)) was 92.9% and the residual activity (PDPK1 (human)) was 92.2%. The residual activity (PRKD3 (human)) was 78.2%, the residual activity (PRKG2 (human)) was 118% and the residual activity (PRKX (human)) was 106%. For the same compound, the residual activity (ROCK2 (human)) was 96%, the residual activity (ROS1 (human)) was 106% and the residual activity (RPS6KA5 KD2 (human)) was 73.9%. The residual activity (RPS6KA6 KD1 KD2 (human)) was 73%, the residual activity (SRPK3 (human)) was 91.2% and the residual activity (STK24 (human)) was 72.1%. For the same compound, the residual activity (TTK (human)) was 94.5%.
`CN([C@@H](Cc1ccc(OS(=O)(=O)c2cccc3cnccc23)cc1)C(=O)N1CCN(c2ccccc2)CC1)S(=O)(=O)c1cccc2cnccc12` showed a residual activity (ACVR1B (human)) of 98.7%, a residual activity (ALK (human)) of 96.5% and a residual activity (AXL (human)) of 103%. The residual activity (CAMK2B (human)) was 97.8%, the residual activity (CDK2 CCNE1 (human)) was 94.9% and the residual activity (CDK6 CCND1 (human)) was 91.6%. For the same compound, the residual activity (CDK9 CCNK (human)) was 89.4%, the residual activity (CHEK2 (human)) was 101% and the residual activity (CHUK (human)) was 93.4%. It also gave a residual activity (CSNK1E (human)) of 103%, a residual activity (DAPK1 (human)) of 117% and a residual activity (EPHA7 (human)) of 102%. For the same compound, the residual activity (ERBB2 (human)) was 96%, the residual activity (FER (human)) was 100% and the residual activity (FLT3 (human)) was 103%. The residual activity (FRK (human)) was 101%, the residual activity (FYN (human)) was 101% and the residual activity (GRK4 (human)) was 96.5%. For the same compound, the residual activity (GRK5 (human)) was 95.6%, the residual activity (GRK6 (human)) was 101% and the residual activity (GSG2 (human)) was 94.7%. For the same compound, the residual activity (LCK (human)) was 97.5%, the residual activity (MAPK1 (human)) was 95.5% and the residual activity (MAPK10 (human)) was 88.2%. The residual activity (MAPK11 (human)) was 98.9%, the residual activity (MAPK12 (human)) was 92.2% and the residual activity (MAPK14 (human)) was 91%. For the same compound, the residual activity (MAPKAPK5 (human)) was 97%, the residual activity (PAK3 (human)) was 102% and the residual activity (PDPK1 (human)) was 96.4%. It also gave a residual activity (PRKCB1 (human)) of 95.9%, a residual activity (PRKD3 (human)) of 99.2% and a residual activity (PRKG2 (human)) of 99.5%. For the same compound, the residual activity (PRKX (human)) was 109%, the residual activity (ROCK2 (human)) was 105% and the residual activity (ROS1 (human)) was 96.5%. For the same compound, the residual activity (RPS6KA5 KD2 (human)) was 100%, the residual activity (RPS6KA6 KD1 KD2 (human)) was 100% and the residual activity (SRPK3 (human)) was 98%. For the same compound, the residual activity (STK24 (human)) was 102% and the residual activity (TTK (human)) was 86%.
With `O=C1NC(=O)/C(=C\c2ccc3nccnc3c2)S1` the residual activity (ACVR1B (human)) was 109%, the residual activity (ALK (human)) was 93.3% and the residual activity (AXL (human)) was 112%. It also gave a residual activity (CAMK2B (human)) of 89.3%, a residual activity (CDK1 CCNA2 (human)) of 90.7% and a residual activity (CDK2 CCNE1 (human)) of 91.8%. For the same compound, the residual activity (CDK6 CCND1 (human)) was 97.5%, the residual activity (CDK9 CCNK (human)) was 86% and the residual activity (CHEK2 (human)) was 90.3%. For the same compound, the residual activity (CHUK (human)) was 86.7%, the residual activity (CSNK1E (human)) was 92.3% and the residual activity (DAPK1 (human)) was 105%. It also gave a residual activity (EPHA7 (human)) of 96.7%, a residual activity (ERBB2 (human)) of 107% and a residual activity (FER (human)) of 96.2%. For the same compound, the residual activity (FLT3 (human)) was 95.2%, the residual activity (FRK (human)) was 91.7% and the residual activity (FYN (human)) was 95.3%. It also gave a residual activity (GRK4 (human)) of 106%, a residual activity (GRK5 (human)) of 105% and a residual activity (GRK6 (human)) of 97%. The residual activity (GSG2 (human)) was 38.8%, the residual activity (LCK (human)) was 98.6% and the residual activity (MAPK1 (human)) was 85.2%. For the same compound, the residual activity (MAPK10 (human)) was 96%, the residual activity (MAPK11 (human)) was 99.2% and the residual activity (MAPK12 (human)) was 96.6%. It also gave a residual activity (MAPK14 (human)) of 92.9%, a residual activity (PAK3 (human)) of 97.4% and a residual activity (PDPK1 (human)) of 104%. For the same compound, the residual activity (PRKCB1 (human)) was 96.9%, the residual activity (PRKD3 (human)) was 94.7% and the residual activity (PRKG2 (human)) was 106%. The residual activity (PRKX (human)) was 89.2%, the residual activity (ROCK2 (human)) was 91.3% and the residual activity (ROS1 (human)) was 92.3%. For the same compound, the residual activity (RPS6KA5 KD2 (human)) was 87.8%, the residual activity (RPS6KA6 KD1 KD2 (human)) was 87.6% and the residual activity (SRPK3 (human)) was 91.4%. It also gave a residual activity (STK24 (human)) of 93.2% and a residual activity (TTK (human)) of 102%.
